According to patent publication US5541194A (priority 1987, dated 1996):
Read-outs that look alike come from different tables or passages of the source.

How the values were obtained:
muscarinic receptors [1] = assay: Radio ligand binding: displacement of muscarinic agonist 3H-Oxotremorine-M (3H-OXO-M) in rat cerebral cortex; set-up: species or system Hooded Lister rats; conditions: displacement of 2 nM 3H-OXO-M; rat cerebral cortex membranes; 37° C., 30 min; 2 mM magnesium chloride; ^+ tested as the oxalate salt, ^++ tested as the hydrochloride salt
muscarinic receptors [2] = type: binding, Hooded Lister rats; conditions: displacement of 0.27 nM 3H-QNB; rat cerebral cortex membranes; 37° C., 30 min; ^+ tested as the oxalate salt, ^++ tested as the hydrochloride salt

| SMILES | IC50 (muscarinic receptors [1]) [nM] | IC50 (muscarinic receptors [2]) [nM] |
| --- | --- | --- |
| Cc1ccc([C@@H]2CN3CC[C@@H]2C3)o1 (relative stereo) [Example E5, (±) exo-3-(5-Methyl-fur-2-yl)-1-azabicyclo[2.2.1]heptane] | 115 | 3200 |
| CCc1ncc(C2CN3CCC2C3)o1 (racemic) [Example E14, (±) 3-(2-Ethyl-1,3-oxazol-5-yl)-1-azabicyclo[2.2.1]heptane] | 800 | 9600 |
| Cc1cc([C@@H]2CN3CC[C@@H]2C3)on1 (relative stereo) [Example E9, (±) exo-3-(3-Methyl-1,2-oxazol-5-yl)-1-azabicyclo[2.2.1]heptane] | 102 | 7500 |
| c1ncc(C2CN3CCC2C3)o1 (racemic) [Example E12, (±) exo and endo-3-(1,3-Oxazol-5-yl)-1-azabicyclo[2.2.1]heptane] | 150 | 29000 |
| Cc1ncc(C2CN3CCC2CC3)o1 (racemic) [Example E7, (±) 3-(2-Methyl-1,3-oxazol-5-yl)-1-azabicyclo[2.2.2]octane] | 105 | 4400 |
| c1cc([C@@H]2CN3CC[C@@H]2C3)on1 (relative stereo) [Example E13, (±) exo-3-(1,2-Oxazol-5-yl)-1-azabicyclo[2.2.1]heptane] | 173 | 30300 |
| c1coc([C@@H]2CN3CC[C@@H]2C3)c1 (relative stereo) [Example E4, (±) exo-3-(Fur-2-yl)-1-azabicyclo[2.2.1]heptane] | 88 | 7000 |
| c1cc(C2CN3CCC2CC3)co1 (racemic) [Example E10, (±) 3-(Fur-3-yl)-1-azabicyclo[2.2.2]octane] | 834 | 19500 |
| Cc1ncc([C@@H]2CN3CC[C@@H]2C3)o1 (relative stereo) [Example E8A, (±) exo- and endo-3-(2-Methyl-1,3-oxazol-5-yl)-1-azabicyclo[2.2.1]heptane] | 24 | 7500 |
| c1cc(C2CN3CCC2CC3)on1 (racemic) [Example E1, (±) 3-(1,2-Oxazol-5-yl)-1-azabicyclo[2.2.2]octane] | 477 | 15500 |
| c1ncc(C2CN3CCC2CC3)o1 (racemic) [Example E11, (±) 3-(1,3-Oxazol-5-yl)-1-azabicyclo[2.2.2]octane] | 480 | 24000 |
| Cc1cc(C2CN3CCC2CC3)on1 (racemic) [Example E6, (±)3-(3-Methyl-1,2-oxazol-5-yl)-1-azabicyclo[2.2.2]octane] | 395 | 4300 |
